The source made the active and inactive calls.
Legend:
[1] = molecular target: T1, Short transient receptor potential channel 4 (Mus musculus, UniProt Q9QUQ5); assay: mouse TRPC4 channel inhibitors, dose response, cell-based, HEK293 TRPC4/mu-opioid, Fluo-4 calcium (AID 434942); assay type: functional;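 further: potency of inhibitors blocking the TRPC4 calcium response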
T1 sequence (Q9QUQ5 whole entry): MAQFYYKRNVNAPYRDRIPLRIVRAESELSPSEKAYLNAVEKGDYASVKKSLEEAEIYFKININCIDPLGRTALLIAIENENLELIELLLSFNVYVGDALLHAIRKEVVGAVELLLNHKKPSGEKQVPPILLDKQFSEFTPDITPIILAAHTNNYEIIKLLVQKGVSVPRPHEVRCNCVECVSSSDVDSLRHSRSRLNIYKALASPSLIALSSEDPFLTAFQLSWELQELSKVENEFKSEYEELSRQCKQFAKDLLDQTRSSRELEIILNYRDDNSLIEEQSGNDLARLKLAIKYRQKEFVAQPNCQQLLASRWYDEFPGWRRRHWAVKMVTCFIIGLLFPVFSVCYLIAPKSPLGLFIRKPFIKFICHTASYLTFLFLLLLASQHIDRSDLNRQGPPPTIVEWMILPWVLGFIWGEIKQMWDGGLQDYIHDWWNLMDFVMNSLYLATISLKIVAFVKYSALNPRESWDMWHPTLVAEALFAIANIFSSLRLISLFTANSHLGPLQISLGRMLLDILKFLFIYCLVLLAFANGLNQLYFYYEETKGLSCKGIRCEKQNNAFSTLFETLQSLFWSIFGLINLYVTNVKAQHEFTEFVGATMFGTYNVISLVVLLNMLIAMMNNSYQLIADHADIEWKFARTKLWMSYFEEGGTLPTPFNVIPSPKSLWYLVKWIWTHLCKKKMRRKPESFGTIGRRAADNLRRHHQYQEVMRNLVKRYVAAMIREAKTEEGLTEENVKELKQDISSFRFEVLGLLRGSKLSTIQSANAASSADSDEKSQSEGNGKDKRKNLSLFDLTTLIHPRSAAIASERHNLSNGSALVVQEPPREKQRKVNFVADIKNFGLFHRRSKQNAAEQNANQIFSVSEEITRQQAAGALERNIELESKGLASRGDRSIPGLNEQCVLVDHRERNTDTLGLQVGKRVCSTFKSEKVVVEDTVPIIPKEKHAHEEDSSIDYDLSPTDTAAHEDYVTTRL

[2] = molecular target: Intestinal-type alkaline phosphatase (Homo sapiens, UniProt P09923); assay: Dose Response confirmation of uHTS hits from a small molecule inhibitors of human intestinal alkaline phosphatase via a luminescent assay. [Related pubchem assays (depositor defined):AID2544, AID2574]; assay type: functional
[3] = molecular target: X-box-binding protein 1 (Homo sapiens, UniProt P17861); assay type: functional, Cricetulus griseus;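 further: confirmatory dose-response counter-screen serving a CHOP assay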
[4] = molecular target: Protein phosphatase methylesterase 1 (Homo sapiens, UniProt Q9Y570); assay: PME-1 inhibitor potency by in-gel ABPP, dose response, selectivity assay for PME-1 inhibitor project, cell lysate, mouse brain cytosol, FP-rhodamine, panel member PME-1 Assay Panel member description: Inhibition of endogenously expressed PME-1 (AID 2366)
[5] = Cytotoxicity screening for potential Inhibitors of Bacterial Capsule Biogenesis. [Related pubchem assays (depositor defined):AID488970]; assay type: functional
[6] = molecular target: Nonstructural protein 1 (Influenza A virus, UniProt Q194T2); assay type: functional, Influenza A virus (A/California/07/2009(H1N1))
[7] = Shn3 3'UTR reporter inhibitors, dose response, cell-based, Clone20 osteoblasts, firefly luciferase, cherry-picked (AID 624132); assay type: functional;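 further: firefly luciferase luminescence from reporter carrying the Shn3 3'UTR in osteoblasts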
[8] = HepG2 cell cytotoxicity, dose response, cytotoxicity control for Shn3 inhibitor project, CellTiter-Glo, cherry-picked (AID 624134); assay type: functional, cell-based
[9] = control 3'UTR Renilla luciferase suppression, dose response, counter-screen for Shn3 inhibitor project, cell-based, Clone20-Shn3RL, cherry-picked (AID 624133); assay type: functional
[10] = HeLa cell cytotoxicity, dose response, cytotoxicity control for MgcRacGAP inhibitor project (AID 624300); assay type: functional
[11] = molecular target: T2, Rac GTPase-activating protein 1 (Homo sapiens, UniProt Q9H0H5); assay: MgcRacGAP GTPase-activating activity inhibitors, confirmation, biochemical, ADP Hunter fluorescence, primary and confirmatory (AID 624330); assay type: functional
T2 sequence (Q9H0H5 whole entry): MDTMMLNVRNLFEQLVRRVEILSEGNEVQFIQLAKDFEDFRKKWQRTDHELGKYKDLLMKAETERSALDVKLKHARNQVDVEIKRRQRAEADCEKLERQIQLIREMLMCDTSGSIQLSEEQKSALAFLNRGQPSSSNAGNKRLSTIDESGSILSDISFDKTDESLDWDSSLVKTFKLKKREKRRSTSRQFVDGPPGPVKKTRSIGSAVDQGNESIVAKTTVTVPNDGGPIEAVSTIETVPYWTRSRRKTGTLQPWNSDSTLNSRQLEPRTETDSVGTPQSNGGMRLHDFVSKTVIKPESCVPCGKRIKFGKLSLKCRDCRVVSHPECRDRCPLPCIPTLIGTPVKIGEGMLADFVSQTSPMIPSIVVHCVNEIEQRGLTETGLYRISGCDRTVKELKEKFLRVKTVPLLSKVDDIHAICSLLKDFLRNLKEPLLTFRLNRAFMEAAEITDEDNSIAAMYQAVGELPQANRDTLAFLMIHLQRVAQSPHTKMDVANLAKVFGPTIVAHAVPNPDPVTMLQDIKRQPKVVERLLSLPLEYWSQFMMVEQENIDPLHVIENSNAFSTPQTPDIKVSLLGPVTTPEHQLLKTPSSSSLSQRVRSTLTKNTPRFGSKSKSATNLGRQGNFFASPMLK

[12] = molecular target: T3, DNA repair protein RAD52 homolog (Homo sapiens, UniProt P43351); assay type: functional, biochemical
T3 sequence (P43351 whole entry): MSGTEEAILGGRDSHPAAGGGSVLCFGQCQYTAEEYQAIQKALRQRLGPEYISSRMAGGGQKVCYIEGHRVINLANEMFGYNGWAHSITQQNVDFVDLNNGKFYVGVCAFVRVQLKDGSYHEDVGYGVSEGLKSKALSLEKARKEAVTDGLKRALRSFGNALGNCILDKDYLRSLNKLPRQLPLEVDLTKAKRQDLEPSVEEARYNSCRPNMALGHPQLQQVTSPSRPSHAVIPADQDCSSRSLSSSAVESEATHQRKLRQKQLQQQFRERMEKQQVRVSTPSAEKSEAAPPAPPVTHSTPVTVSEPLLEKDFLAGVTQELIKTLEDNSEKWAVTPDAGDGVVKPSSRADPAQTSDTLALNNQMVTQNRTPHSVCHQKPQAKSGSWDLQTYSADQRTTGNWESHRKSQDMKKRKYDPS

[13] = IRAP inhibitors, dose response, selectivity assay for ERAP1 modulator project, biochemical, Leu-AMC fluorescence, cherry-picked samples, set 2 (AID 743340)
[14] = molecular target: Endoplasmic reticulum aminopeptidase 1 (Homo sapiens, UniProt Q9NZ08); assay: ERAP1 aminopeptidase inhibitors, dose response, biochemical, cherry-pick, set 2, plate reader (AID 743314)
[15] = molecular target: T4, Voltage-gated N-type calcium channel alpha-1B subunit/Amyloid beta A4 precursor protein-binding family A member 1 (Homo sapiens, UniProt Q00975+Q02410); assay: disruptors of Mint-PDZ/N-type channel peptide interaction – biochemical, HTRF, set 2, SAR follow-up (AID 434980); assay type: functional
[16] = molecular target: T4, Voltage-gated N-type calcium channel alpha-1B subunit/Amyloid beta A4 precursor protein-binding family A member 1; assay: disruptors of Mint-PDZ/N-type channel peptide interaction – biochemical, HTRF, SAR follow-up (AID 2489); assay type: functional
[17] = molecular target: Tyrosine-protein phosphatase non-receptor type 12 (Homo sapiens, UniProt Q05209); assay: SAR Selectivity Analysis of small molecule inhibitors of PEST using pCAP in a fluorescence assay. [Related pubchem assays (depositor defined):AID1779, AID1784, AID2135]; assay type: functional
[18] = molecular target: T5, Dual specificity protein phosphatase 3 (Homo sapiens, UniProt P51452); assay: SAR VHR1 absorbance Assay for In Vitro dose response studies. [Related pubchem assays (depositor defined):AID1654, AID1661, AID1878, AID1992, AID2004]
[19] = molecular target: T5, Dual specificity protein phosphatase 3; assay: SAR VHR1 Fluorescent Assay for In Vitro dose response studies. [Related pubchem assays (depositor defined):AID1654, AID1661, AID1878, AID1992, AID2004, AID2070, AID2085]; assay type: functional
[20] = molecular target: T6, Tyrosine-protein phosphatase non-receptor type 22 (Homo sapiens, UniProt Q9Y2R2); assay: SAR LYP1 Fluorescent Assay using OMFP substrate for In Vitro dose response studies - Set 3. [Related pubchem assays (depositor defined):AID1779, AID1784, AID2140, AID2686]; assay type: functional
T6 sequence (Q9Y2R2 whole entry): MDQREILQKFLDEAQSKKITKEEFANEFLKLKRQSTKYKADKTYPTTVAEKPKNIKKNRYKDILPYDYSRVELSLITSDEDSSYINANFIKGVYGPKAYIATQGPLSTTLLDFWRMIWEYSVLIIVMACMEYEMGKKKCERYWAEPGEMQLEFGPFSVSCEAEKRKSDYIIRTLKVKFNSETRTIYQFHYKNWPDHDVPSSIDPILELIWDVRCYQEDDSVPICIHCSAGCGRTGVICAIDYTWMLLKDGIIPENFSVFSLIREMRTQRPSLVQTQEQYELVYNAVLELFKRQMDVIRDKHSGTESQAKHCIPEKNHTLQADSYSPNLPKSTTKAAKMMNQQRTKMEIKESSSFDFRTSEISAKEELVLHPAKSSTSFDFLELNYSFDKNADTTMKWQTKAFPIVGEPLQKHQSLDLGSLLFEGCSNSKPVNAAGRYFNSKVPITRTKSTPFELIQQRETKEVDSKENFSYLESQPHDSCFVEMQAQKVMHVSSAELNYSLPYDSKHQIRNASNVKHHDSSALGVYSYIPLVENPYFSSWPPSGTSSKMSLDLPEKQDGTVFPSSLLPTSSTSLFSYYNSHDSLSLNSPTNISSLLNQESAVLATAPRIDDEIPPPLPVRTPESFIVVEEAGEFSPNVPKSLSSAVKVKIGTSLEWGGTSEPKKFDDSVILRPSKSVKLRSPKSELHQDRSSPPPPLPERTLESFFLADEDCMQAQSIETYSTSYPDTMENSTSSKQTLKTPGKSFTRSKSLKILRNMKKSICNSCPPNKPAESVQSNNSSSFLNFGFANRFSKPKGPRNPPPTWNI

[21] = molecular target: T7, Tyrosine-protein phosphatase non-receptor type 7 (Homo sapiens, UniProt P35236); assay: redox-dependent HePTP inhibition, mechanism study, biochemical, fluorescence (AID 2068); assay type: functional
T7 sequence (P35236 whole entry): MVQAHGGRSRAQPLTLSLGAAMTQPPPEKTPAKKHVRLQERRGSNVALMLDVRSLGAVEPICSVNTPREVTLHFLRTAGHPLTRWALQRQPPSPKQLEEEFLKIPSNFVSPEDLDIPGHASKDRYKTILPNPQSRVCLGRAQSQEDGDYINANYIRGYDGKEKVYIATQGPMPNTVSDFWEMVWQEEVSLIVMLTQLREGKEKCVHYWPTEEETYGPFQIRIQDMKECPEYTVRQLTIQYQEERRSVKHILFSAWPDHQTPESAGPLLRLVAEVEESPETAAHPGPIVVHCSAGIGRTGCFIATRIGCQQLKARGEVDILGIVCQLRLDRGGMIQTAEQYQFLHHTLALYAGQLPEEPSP

[22] = molecular target: T6, Tyrosine-protein phosphatase non-receptor type 22; assay: LYP (PTPN22) phosphatase inhibitor potency, SAR follow-up, biochemical, pCAP fluorogenic substrate, fluorescence, set 3 (AID 449727); assay type: functional
[23] = molecular target: T8, Dual specificity protein phosphatase 6 (Rattus norvegicus, UniProt Q64346); assay type: functional;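 further: confirmatory in vitro dose-response testing of MKP-3 inhibition; recombinant His-tagged MKP-3 made in E. coli BL21 with OMFP substrate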
T8 sequence (Q64346 whole entry): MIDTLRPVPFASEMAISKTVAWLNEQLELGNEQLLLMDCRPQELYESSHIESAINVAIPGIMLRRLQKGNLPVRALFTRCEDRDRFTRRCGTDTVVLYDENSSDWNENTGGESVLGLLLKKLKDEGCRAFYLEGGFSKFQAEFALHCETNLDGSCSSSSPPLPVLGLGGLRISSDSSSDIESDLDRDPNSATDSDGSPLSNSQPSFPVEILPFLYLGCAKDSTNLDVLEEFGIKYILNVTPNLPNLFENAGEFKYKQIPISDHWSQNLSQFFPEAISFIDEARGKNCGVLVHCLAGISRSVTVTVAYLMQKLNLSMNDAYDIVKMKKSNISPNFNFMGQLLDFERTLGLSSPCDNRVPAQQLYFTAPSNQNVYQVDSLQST

[24] = molecular target: ORF 73 (Human herpesvirus 8, UniProt O40947); assay: inhibitors of C-LANA binding to LBS DNA, dose response, biochemical, fluorescence polarization, cherry-picked samples (AID 504725); set-up: species or system Human gammaherpesvirus 8;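 further: fluorescence polarization of a labeled DNA duplex reporting LANA DNA binding; potency is for inhibitors that block LANA binding to the DNA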

T4 sequence (Q00975 whole entry): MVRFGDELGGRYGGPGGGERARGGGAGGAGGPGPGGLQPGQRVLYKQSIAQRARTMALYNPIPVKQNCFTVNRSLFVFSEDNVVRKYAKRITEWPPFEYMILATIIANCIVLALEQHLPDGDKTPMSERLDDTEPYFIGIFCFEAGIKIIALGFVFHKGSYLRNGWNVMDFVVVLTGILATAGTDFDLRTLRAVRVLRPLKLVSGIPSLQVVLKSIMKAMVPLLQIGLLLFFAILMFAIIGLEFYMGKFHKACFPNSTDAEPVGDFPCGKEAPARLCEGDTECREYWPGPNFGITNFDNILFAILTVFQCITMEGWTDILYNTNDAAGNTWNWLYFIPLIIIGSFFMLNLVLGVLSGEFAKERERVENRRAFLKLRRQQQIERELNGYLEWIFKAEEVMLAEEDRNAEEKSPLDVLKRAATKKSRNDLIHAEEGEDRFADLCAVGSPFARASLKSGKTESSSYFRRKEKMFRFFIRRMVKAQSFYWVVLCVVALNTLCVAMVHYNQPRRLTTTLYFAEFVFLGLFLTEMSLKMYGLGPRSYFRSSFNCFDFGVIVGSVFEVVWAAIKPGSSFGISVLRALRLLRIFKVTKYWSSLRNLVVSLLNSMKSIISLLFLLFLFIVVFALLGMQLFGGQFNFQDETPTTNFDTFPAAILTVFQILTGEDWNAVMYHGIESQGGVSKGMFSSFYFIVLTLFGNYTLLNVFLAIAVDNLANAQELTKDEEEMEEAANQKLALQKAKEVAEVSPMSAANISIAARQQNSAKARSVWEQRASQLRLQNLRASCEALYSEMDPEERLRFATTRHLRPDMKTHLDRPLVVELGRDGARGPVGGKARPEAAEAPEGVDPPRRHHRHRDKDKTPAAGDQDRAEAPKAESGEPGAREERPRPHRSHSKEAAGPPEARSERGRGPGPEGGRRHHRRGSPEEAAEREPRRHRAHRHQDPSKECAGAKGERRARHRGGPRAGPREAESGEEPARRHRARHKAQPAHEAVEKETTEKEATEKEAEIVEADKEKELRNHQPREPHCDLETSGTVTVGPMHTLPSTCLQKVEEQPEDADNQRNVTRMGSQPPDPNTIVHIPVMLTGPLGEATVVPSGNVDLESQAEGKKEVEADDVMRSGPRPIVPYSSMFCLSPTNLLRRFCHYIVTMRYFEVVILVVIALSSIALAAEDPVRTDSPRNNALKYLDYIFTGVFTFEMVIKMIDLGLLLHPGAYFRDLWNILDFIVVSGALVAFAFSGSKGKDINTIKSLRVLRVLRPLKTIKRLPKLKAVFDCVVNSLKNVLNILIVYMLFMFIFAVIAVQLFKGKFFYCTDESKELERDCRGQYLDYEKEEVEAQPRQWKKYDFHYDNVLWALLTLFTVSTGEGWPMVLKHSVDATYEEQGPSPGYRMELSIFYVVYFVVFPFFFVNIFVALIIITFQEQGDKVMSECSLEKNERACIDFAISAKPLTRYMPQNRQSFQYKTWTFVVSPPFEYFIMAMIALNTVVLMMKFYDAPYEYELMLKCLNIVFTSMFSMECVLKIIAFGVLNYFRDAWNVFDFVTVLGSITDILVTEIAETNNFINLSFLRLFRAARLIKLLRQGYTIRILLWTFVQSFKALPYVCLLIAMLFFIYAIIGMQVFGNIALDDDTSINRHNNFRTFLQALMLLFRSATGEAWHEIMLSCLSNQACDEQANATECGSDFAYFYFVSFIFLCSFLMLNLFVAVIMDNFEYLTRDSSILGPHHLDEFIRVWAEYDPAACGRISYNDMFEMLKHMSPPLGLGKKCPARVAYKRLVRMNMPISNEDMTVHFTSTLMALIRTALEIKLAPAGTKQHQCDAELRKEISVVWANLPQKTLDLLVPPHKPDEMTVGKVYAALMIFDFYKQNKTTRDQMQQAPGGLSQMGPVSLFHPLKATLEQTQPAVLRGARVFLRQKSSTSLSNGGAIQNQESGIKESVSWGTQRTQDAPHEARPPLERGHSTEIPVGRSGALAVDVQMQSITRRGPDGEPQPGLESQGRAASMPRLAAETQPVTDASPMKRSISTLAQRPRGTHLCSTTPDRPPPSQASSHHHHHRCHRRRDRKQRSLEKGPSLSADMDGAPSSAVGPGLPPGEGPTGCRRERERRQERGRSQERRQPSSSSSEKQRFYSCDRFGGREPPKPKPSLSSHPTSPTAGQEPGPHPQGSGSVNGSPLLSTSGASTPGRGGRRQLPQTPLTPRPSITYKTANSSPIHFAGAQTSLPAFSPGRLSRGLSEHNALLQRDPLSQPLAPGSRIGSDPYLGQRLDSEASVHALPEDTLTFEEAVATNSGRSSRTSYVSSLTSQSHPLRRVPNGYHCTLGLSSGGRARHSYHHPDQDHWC
T4 sequence (Q02410 whole entry): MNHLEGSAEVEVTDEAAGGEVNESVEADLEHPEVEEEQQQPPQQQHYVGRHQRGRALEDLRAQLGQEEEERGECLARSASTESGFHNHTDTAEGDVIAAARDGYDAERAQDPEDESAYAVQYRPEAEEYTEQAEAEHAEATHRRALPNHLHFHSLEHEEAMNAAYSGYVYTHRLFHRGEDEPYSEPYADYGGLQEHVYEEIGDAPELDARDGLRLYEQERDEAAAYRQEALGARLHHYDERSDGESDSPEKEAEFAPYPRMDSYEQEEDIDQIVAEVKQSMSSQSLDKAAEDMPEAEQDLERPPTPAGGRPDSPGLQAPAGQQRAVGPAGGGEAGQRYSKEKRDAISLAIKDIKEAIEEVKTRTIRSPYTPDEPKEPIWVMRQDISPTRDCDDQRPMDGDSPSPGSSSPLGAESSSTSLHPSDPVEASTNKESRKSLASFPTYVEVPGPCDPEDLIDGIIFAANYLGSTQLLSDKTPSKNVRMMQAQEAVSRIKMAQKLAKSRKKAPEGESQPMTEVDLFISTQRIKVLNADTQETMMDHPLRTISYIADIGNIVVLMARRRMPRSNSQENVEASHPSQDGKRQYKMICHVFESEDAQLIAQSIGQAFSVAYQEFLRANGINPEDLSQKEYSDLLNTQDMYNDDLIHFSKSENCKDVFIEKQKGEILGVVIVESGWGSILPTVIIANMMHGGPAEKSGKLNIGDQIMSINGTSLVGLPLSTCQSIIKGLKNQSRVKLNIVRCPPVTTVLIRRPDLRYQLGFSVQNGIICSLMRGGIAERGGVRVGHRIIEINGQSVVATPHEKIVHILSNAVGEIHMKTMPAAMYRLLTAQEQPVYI
T5 sequence (P51452 whole entry): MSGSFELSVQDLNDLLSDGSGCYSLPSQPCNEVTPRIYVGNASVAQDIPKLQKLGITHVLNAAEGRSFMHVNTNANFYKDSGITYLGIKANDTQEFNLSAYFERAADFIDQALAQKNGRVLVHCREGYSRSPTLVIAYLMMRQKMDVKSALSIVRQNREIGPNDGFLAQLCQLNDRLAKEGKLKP
Endoplasmic reticulum aminopeptidase 1, sequence (Q9NZ08 whole entry): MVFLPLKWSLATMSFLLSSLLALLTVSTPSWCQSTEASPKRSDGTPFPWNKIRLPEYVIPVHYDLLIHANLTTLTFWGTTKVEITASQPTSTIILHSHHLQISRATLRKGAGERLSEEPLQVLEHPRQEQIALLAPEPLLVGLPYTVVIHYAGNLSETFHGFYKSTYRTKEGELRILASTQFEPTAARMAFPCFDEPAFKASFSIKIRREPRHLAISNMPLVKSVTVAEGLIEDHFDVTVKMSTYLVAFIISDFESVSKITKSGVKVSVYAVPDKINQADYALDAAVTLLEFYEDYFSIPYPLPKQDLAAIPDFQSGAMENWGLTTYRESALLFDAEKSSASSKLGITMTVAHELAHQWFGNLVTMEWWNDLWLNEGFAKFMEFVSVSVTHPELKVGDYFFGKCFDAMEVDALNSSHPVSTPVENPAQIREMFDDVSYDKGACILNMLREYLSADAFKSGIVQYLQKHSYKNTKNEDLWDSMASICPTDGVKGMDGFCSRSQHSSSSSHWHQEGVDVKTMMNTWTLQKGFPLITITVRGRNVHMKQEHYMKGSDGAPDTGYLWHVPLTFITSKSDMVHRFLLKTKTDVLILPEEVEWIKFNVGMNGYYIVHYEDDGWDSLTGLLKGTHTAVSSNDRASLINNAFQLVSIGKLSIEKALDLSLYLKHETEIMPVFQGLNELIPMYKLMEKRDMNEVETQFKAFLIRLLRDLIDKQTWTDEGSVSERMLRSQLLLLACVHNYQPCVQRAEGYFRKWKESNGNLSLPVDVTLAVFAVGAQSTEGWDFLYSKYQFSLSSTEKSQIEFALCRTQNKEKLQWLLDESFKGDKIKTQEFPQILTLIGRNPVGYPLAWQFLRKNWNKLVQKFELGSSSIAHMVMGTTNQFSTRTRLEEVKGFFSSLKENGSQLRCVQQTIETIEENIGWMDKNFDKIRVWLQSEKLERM
Intestinal-type alkaline phosphatase, sequence (P09923 whole entry): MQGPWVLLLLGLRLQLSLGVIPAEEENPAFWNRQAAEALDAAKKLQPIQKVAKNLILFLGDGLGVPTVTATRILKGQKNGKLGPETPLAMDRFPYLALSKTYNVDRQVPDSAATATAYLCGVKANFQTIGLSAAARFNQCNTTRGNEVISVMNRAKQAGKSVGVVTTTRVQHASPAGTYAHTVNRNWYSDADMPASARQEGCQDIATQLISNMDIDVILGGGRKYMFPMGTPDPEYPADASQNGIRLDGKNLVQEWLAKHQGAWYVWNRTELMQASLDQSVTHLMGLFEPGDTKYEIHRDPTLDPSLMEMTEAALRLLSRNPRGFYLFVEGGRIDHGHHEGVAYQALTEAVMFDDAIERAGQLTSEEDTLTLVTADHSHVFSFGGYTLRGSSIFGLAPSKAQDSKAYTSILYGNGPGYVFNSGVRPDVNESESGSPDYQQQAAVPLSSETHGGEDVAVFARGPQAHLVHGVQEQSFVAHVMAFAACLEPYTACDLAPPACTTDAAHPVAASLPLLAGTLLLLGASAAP
Nonstructural protein 1, sequence (Q194T2 whole entry): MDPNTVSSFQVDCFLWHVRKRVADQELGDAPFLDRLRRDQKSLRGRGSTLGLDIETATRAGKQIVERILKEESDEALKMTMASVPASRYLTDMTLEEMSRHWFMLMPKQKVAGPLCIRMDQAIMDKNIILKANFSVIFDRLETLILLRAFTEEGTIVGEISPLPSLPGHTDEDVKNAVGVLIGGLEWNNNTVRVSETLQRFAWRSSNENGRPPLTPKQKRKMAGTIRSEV

CCCCn1c2ccccc2c2nnc(SCCN3CCCCC3)nc21
active: EC50 [1] 6.68 µM

COC(=O)CN1C(=O)C(O)(CC(=O)c2ccc(C)cc2)c2ccccc21 (centres undefined)
inactive: IC50 [2] > 100 µM

Cc1csc(NC(=O)CSc2nnc3c4ccccc4nc(C(C)(C)C)n23)n1
10 µM: Absolute IC50 (XBP1) [3]

N#CC(C#N)=Cc1cccn1S(=O)(=O)c1ccccc1
inactive: IC50 [4] 20 µM

CCN(CCCl)c1cc(CN(C)C)cc(NC(=O)c2ccc(C(=O)Nc3cc(CN(C)C)cc(N(CC)CCCl)c3)cc2)c1
active: CC50 [5] < 0.38 µM | IC50 [6] 7.89 µM | AC50 [7] 2.65 µM | AC50 [8] 1.25 µM | AC50 [9] 13.1 µM | CC50 [10] 6.78 µM | IC50 [11] 126 µM | AC50 [12] 1.71 µM | AC50 [13] 19.4 µM | AC50 [14] 4.85 µM

CC12C=CC(C)(O1)C1C(=O)N(c3ccc(Cl)cc3)C(=O)C12 (centres undefined)
inactive: IC50 [15] > 56.8 µM | IC50 [16] > 56.8 µM

Cc1cc(OCC(=O)O)ccc1S(C)(=O)=O
inactive: IC50 [17] > 100 µM | IC50 [18] > 100 µM | IC50 [19] > 99 µM | IC50 [20] > 100 µM | IC50 [21] > 100 µM | IC50 [22] > 100 µM | IC50 [23] > 99 µM

CCOc1ccc(-n2c(Cc3cc(O)nc(O)n3)nnc2SCc2cccnc2)cc1
active: AC50 [24] 76.4 µM
